Experimental data published in patent US20110160175A1, “18,21-Didesoxymacbecin Derivatives for the Treatment of Cancer” (priority 2006, published 2011).

Key:
Hsp90 = Hsp90 (Homo sapiens, UniProt P07900); conditions: cited from earlier work
[1] = system: panel of human tumour cell lines; experiment: Monolayer proliferation assay, mean IC70 across the cell line panel; format: cell-based; conditions: geometric mean of all replicates across the 6 cell lines; concentration inhibiting cell growth by 70%
Description: In vitro evaluation of compounds for anticancer activity in a panel of human tumour cell lines in a monolayer proliferation assay were carried out at the Oncotest Testing Facility, Institute for Experimental Oncology, Oncotest GmbH, Freiburg.
The Oncotest cell lines were established from human tumor xenografts as described by Roth et al., (1999). The origin of the donor xenografts was described by Fiebig at al., (1999). Other cell lines were either obtained from the NCl (DU145, MCF-7) or purchased from DSMZ, Braunschweig, Germany.
All cell lines, unless otherwise specified, were grown at 37° C. in a humidified atmosphere (95% air, 5% CO2) in a ‘ready-mix’ medium containing RPMI 1640 medium, 10% fetal calf serum, and 0.1 mg/mL gentamicin (PAA, Cölbe, Germany). […]
Briefly, cells were harvested from exponential phase cultures by trypsinization, counted and plated in 96 well flat-bottomed microtitre plates at a cell density dependent on the cell line (5-10.000 viable cells/well). […] After thawing the plates, fluorescence was measured using the Cytofluor 4000 microplate reader (excitation 530 nm, emission 620 nm), giving a direct relationship to the total number of viable cells. Growth inhibition may be expressed as treated/control×100 (% T/C). […]

SMILES	binding affinity to Hsp90, fold greater than 17-AAG (Hsp90; relative to 17-AAG) [fold]	binding affinity to Hsp90, fold greater than geldanamycin (Hsp90; relative to geldanamycin) [fold]	average IC70 value across the cell-line panel [1] [µg/mL]
CO[C@H]1C[C@H](C)Cc2cc(O)cc(c2)NC(=O)/C=C/CC[C@H](OC)[C@@H](OC(N)=O)/C(C)=C/[C@H](C)[C@H]1O [KOSN1559]	8	4	
CO[C@H]1[C@@H](OC)C[C@H](C)[C@@H](OC)C2=CC(=O)C=C(NC(=O)/C(C)=C/C=C\[C@H](C)[C@@H](OC(N)=O)/C(C)=C/[C@@H]1C)C2=O [macbecin]			0.21
